Laboratory results from patent US9725459B2, “3-oxo-tetrahydro-furo[3,2-B]pyrrol-4(5H)-yl) derivatives I” (GRÜNENTHAL GMBH, priority 2014, dated 2017).
Read-outs that look alike come from different tables or passages of the source.

What was measured:
Assay type in all cases: biochemical
human cathepsin S (CatS) = human cathepsin S (CatS) (Homo sapiens (Human), UniProt P25774); assay: CatS functional enzyme assay; settings: for Selectivity Ki(hCatS)/Ki(hCatK): ratio Ki(hCatS)/Ki(hCatK); for Ki: read-out: hCatS, Ki
Method: Reference and test compounds were assayed for inhibitory potency (IC50) against human cathepsins using the following assay setups: Recombinant human cathepsins (CatS, CatK, CatL) were purchased from a Enzo Life Sciences. […] For CatS, the enzyme (0.0007 mU/well) was incubated with fluorogeninc substrate (Z-VVR-AMC, 5 μM) at RT for 10 min. For CatK the enzyme (0.00175 mU/well) was incubated with fluorogeninc substrate (Z-FR-AMC, 40 μM) at RT for 10 min. For CatL, the enzyme (0.000874 mU/well) was incubated with fluorogeninc substrate (Z-VVR-AMC, 40 μM) at RT for 10 min. Flourogenic substrate turnover was detected using a microplate reader (Synergy™ H4, BioTek). Ki values were calculated using the Cheng Prusoff equation (Cheng & Prosoff 1973).

human cathepsin K (CatK) = human cathepsin K (CatK) (Homo sapiens (Human), UniProt P43235); assay: CatK functional enzyme assay; settings: recombinant human CatK, substrate Z-FR-AMC 40 μM, pH 5.5; Ki by Cheng Prusoff equation; read-out: hCatK, Ki
Method: (§1) Reference and test compounds were assayed for inhibitory potency (IC50) against human cathepsins using the following assay setups:
(§2) Recombinant human cathepsins (CatS, CatK, CatL) were purchased from a Enzo Life Sciences. All assays were carried out in 96-well format using a buffer of 50 mM KH2PO4, 50 mM NaCl, 2 mM EDTA, 0.5 mM DTT and 1% Triton-X-100, pH 6.5 for Cathepsin S and a buffer of 50 mM NaOAc, 10 mM EDTA, 1 mM DTT and 0.01% Triton-X-100, pH 5.5 for CatK/L/B. For CatS, the enzyme (0.0007 mU/well) was incubated with fluorogeninc substrate (Z-VVR-AMC, 5 μM) at RT for 10 min. For CatK the enzyme (0.00175 mU/well) was incubated with fluorogeninc substrate (Z-FR-AMC, 40 μM) at RT for 10 min. For CatL, the enzyme (0.000874 mU/well) was incubated with fluorogeninc substrate (Z-VVR-AMC, 40 μM) at RT for 10 min. Flourogenic substrate turnover was detected using a microplate reader (Synergy™ H4, BioTek). Ki values were calculated using the Cheng Prusoff equation (Cheng & Prosoff 1973).

human cathepsin L (CatL) = human cathepsin L (CatL) (Homo sapiens (Human), UniProt P07711); assay: CatL functional enzyme assay; settings: read-out: hCatL, inhibition [%] at 31.6 μM
Method: as §1, §2

[1] = recombinant human CatS, substrate Z-VVR-AMC 5 μM, pH 6.5, Ki by Cheng Prusoff equation

human cathepsin K (CatK), sequence (P43235 115-329): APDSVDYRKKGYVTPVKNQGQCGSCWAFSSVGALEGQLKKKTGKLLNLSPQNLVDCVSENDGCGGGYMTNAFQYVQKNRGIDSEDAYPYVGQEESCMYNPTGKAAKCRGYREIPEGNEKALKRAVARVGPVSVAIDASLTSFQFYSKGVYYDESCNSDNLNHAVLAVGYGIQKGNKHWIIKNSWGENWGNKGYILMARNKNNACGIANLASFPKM
human cathepsin L (CatL), sequence (P07711 114-333): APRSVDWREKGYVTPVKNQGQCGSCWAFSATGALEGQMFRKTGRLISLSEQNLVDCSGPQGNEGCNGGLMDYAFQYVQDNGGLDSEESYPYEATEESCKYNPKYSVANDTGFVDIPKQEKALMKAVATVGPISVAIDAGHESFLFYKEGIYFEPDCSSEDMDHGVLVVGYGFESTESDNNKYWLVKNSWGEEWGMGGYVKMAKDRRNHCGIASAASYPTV
human cathepsin S (CatS), sequence (P25774 115-331): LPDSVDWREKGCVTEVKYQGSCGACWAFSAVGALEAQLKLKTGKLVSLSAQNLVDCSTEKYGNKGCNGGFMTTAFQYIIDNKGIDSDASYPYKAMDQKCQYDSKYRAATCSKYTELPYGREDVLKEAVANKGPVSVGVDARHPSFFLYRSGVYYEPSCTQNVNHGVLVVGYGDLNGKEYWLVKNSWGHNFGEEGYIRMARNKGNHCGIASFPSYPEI

Selectivity Ki(hCatS)/Ki(hCatK) (human cathepsin S (CatS))	Ki (human cathepsin S (CatS); [1]) [nM]	Ki (human cathepsin K (CatK)) [nM]	inhibition at 31.6 µM (human cathepsin L (CatL)) [%]	Ki (human cathepsin S (CatS)) [nM]	Compound
7.2	72	10	28	–	Cc1ncc(-c2ccc(C(=O)N[C@H](C(=O)N3C[C@H](Cl)[C@H]4OCC(=O)[C@H]43)C3CCCCC3)s2)cn1 [Example 30, N-((S)-2-((3aS,6S,6aS)-6-chloro-3-oxotetrahydro-2H-furo[3,2-b]pyrrol-4(5H)-yl)-1-cyclohexyl-2-oxoethyl)-5-(2-methylpyrimidin-5-yl)thiophene-2-carboxamide]
21.5	86	4	12	–	Cc1cc(-c2ccc(C(=O)N[C@H](C(=O)N3C[C@H](Cl)[C@H]4OCC(=O)[C@H]43)C3CCCCC3)s2)ccn1 [Example 33, N-((S)-2-((3aS,6S,6aS)-6-chloro-3-oxotetrahydro-2H-furo[3,2-b]pyrrol-4(5H)-yl)-1-cyclohexyl-2-oxoethyl)-5-(2-methylpyridin-4-yl)thiophene-2-carboxamide]
10.7	172	16	23	–	Cc1ccc(-c2ccc(C(=O)N[C@H](C(=O)N3C[C@H](Cl)[C@H]4OCC(=O)[C@H]43)C3CCCCC3)s2)nn1 [Example 35, N-((S)-2-((3aS,6S,6aS)-6-chloro-3-oxotetrahydro-2H-furo[3,2-b]pyrrol-4(5H)-yl)-1-cyclohexyl-2-oxoethyl)-5-(6-methylpyridazin-3-yl)thiophene-2-carboxamide]
21.3	469	22	9	–	O=C(N[C@H](C(=O)N1C[C@H](Cl)[C@H]2OCC(=O)[C@H]21)C1CCCCC1)c1ccc(-c2ncncc2F)s1 [Example 36, N-((S)-2-((3aS,6S,6aS)-6-chloro-3-oxotetrahydro-2H-furo[3,2-b]pyrrol-4(5H)-yl)-1-cyclohexyl-2-oxoethyl)-5-(5-fluoropyrimidin-4-yl)thiophene-2-carboxamide]
10.7	213	20	30	–	O=C(N[C@H](C(=O)N1C[C@H](Cl)[C@H]2OCC(=O)[C@H]21)C1CCCCC1)c1ccc(-c2ccc(F)nn2)s1 [Example 38, N-((S)-2-((3aS,6S,6aS)-6-chloro-3-oxotetrahydro-2H-furo[3,2-b]pyrrol-4(5H)-yl)-1-cyclohexyl-2-oxoethyl)-5-(6-fluoropyridazin-3-yl)thiophene-2-carboxamide]
4.7	70	15	33	–	Cc1cnnc(-c2ccc(C(=O)N[C@H](C(=O)N3C[C@H](Cl)[C@H]4OCC(=O)[C@H]43)C3CCCCC3)s2)c1 [Example 44, N-((S)-2-((3aS,6S,6aS)-6-chloro-3-oxotetrahydro-2H-furo[3,2-b]pyrrol-4(5H)-yl)-1-cyclohexyl-2-oxoethyl)-5-(5-methylpyridazin-3-yl)thiophene-2-carboxamide]

Continued, compound first:

Compound	Selectivity Ki(hCatS)/Ki(hCatK) (human cathepsin S (CatS))	Ki (human cathepsin S (CatS); [1]) [nM]	Ki (human cathepsin K (CatK)) [nM]	inhibition at 31.6 µM (human cathepsin L (CatL)) [%]	Ki (human cathepsin S (CatS)) [nM]
O=C(N[C@H](C(=O)N1C[C@H](Cl)[C@H]2OCC(=O)[C@H]21)C1CCCCC1)c1ncc(-c2ccncn2)s1 [Example 26, N-((S)-2-((3aS,6S,6aS)-6-chloro-3-oxotetrahydro-2H-furo[3,2-b]pyrrol-4(5H)-yl)-1-cyclohexyl-2-oxoethyl)-5-(pyrimidin-4-yl)thiazole-2-carboxamide]	4.6	220	48	32	–
O=C(N[C@H](C(=O)N1C[C@H](Cl)[C@H]2OCC(=O)[C@H]21)C1CCCCC1)c1ccc(-c2ccncc2F)s1 [Example 31, N-((S)-2-((3aS,6S,6aS)-6-chloro-3-oxotetrahydro-2H-furo[3,2-b]pyrrol-4(5H)-yl)-1-cyclohexyl-2-oxoethyl)-5-(3-fluoropyridin-4-yl)thiophene-2-carboxamide]	88.0	440	5	14	–
Cc1nccc(-c2cnc(C(=O)N[C@H](C(=O)N3C[C@H](Cl)[C@H]4OCC(=O)[C@H]43)C3CCCCC3)s2)n1 [Example 32, N-((S)-2-((3aS,6S,6aS)-6-chloro-3-oxotetrahydro-2H-furo[3,2-b]pyrrol-4(5H)-yl)-1-cyclohexyl-2-oxoethyl)-5-(2-methylpyrimidin-4-yl)thiazole-2-carboxamide]	15.9	317	20	22	–
O=C(N[C@H](C(=O)N1C[C@H](Cl)[C@H]2OCC(=O)[C@H]21)C1CCCCC1)c1cc(F)c(-c2cncnc2)s1 [Example 37, N-((S)-2-((3aS,6S,6aS)-6-chloro-3-oxotetrahydro-2H-furo[3,2-b]pyrrol-4(5H)-yl)-1-cyclohexyl-2-oxoethyl)-4-fluoro-5-(pyrimidin-5-yl)thiophene-2-carboxamide]	26.7	–	15	29	401
N#Cc1cncc(-c2ccc(C(=O)N[C@H](C(=O)N3C[C@H](Cl)[C@H]4OCC(=O)[C@H]43)C3CCCCC3)s2)c1 [Example 39, N-((S)-2-((3aS,6S,6aS)-6-chloro-3-oxotetrahydro-2H-furo[3,2-b]pyrrol-4(5H)-yl)-1-cyclohexyl-2-oxoethyl)-5-(5-cyanopyridin-3-yl)thiophene-2-carboxamide]	11.8	225	19	19	–
O=C(N[C@H](C(=O)N1C[C@H](Cl)[C@H]2OCC(=O)[C@H]21)C1CCCCC1)c1cc(F)c(-c2ccnnc2)s1 [Example 40, N-((S)-2-((3aS,6S,6aS)-6-chloro-3-oxotetrahydro-2H-furo[3,2-b]pyrrol-4(5H)-yl)-1-cyclohexyl-2-oxoethyl)-4-fluoro-5-(pyridazin-4-yl)thiophene-2-carboxamide]	37.8	453	12	39	–
Cc1ncc(-c2cnc(C(=O)N[C@H](C(=O)N3C[C@H](Cl)[C@H]4OCC(=O)[C@H]43)C3CCCCC3)s2)cn1 [Example 41, N-((S)-2-((3aS,6S,6aS)-6-chloro-3-oxotetrahydro-2H-furo[3,2-b]pyrrol-4(5H)-yl)-1-cyclohexyl-2-oxoethyl)-5-(2-methylpyrimidin-5-yl)thiazole-2-carboxamide]	–	144	26	25	–
Cc1ccc(-c2cnc(C(=O)N[C@H](C(=O)N3C[C@H](Cl)[C@H]4OCC(=O)[C@H]43)C3CCCCC3)s2)cn1 [Example 42, N-((S)-2-((3aS,6S,6aS)-6-chloro-3-oxotetrahydro-2H-furo[3,2-b]pyrrol-4(5H)-yl)-1-cyclohexyl-2-oxoethyl)-5-(6-methylpyridin-3-yl)thiazole-2-carboxamide]	25.4	356	14	18	–
N#Cc1cncc(-c2cnc(C(=O)N[C@H](C(=O)N3C[C@H](Cl)[C@H]4OCC(=O)[C@H]43)C3CCCCC3)s2)c1 [Example 43, N-((S)-2-((3aS,6S,6aS)-6-chloro-3-oxotetrahydro-2H-furo[3,2-b]pyrrol-4(5H)-yl)-1-cyclohexyl-2-oxoethyl)-5-(5-cyanopyridin-3-yl)thiazole-2-carboxamide]	3.2	769	243	16	–
O=C(N[C@H](C(=O)N1C[C@H](Cl)[C@H]2OCC(=O)[C@H]21)C1CCCCC1)c1ncc(-c2cccnc2)s1 [Example 45, N-((S)-2-((3aS,6S,6aS)-6-chloro-3-oxotetrahydro-2H-furo[3,2-b]pyrrol-4(5H)-yl)-1-cyclohexyl-2-oxoethyl)-5-(pyridin-3-yl)thiazole-2-carboxamide]	32.8	262	8	26	–
O=C(N[C@H](C(=O)N1C[C@H](Cl)[C@H]2OCC(=O)[C@H]21)C1CCCCC1)c1ncc(-c2ccccn2)s1 [Example 46, N-((S)-2-((3aS,6S,6aS)-6-chloro-3-oxotetrahydro-2H-furo[3,2-b]pyrrol-4(5H)-yl)-1-cyclohexyl-2-oxoethyl)-5-(pyridin-2-yl)thiazole-2-carboxamide]	45.9	413	9	6	–
